# Patent US10342823B2, “Topical and oral formulations comprising taurine and magnesium for the prevention and treatment of acne” (priority 2015, dated 2019)
# Experiments:
# LXR-alpha = biological target: T1, LXR-alpha (Homo sapiens, UniProt Q13133); conditions: liver cells in vitro; cited from earlier work
# T1 construct: host or cells: liver cells in vitro
# T1 sequence (Q13133 1-447): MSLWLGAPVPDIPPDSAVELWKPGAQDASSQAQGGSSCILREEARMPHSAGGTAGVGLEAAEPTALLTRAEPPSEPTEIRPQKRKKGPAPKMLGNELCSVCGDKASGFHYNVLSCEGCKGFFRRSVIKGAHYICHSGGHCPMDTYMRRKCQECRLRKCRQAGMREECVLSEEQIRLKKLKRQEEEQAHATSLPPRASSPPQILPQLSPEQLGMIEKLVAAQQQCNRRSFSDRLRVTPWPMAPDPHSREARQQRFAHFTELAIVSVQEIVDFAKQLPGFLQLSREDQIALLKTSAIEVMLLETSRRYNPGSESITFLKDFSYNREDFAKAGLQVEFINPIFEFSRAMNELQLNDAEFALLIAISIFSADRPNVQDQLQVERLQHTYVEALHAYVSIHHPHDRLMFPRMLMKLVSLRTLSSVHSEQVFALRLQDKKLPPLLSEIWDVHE
# acne = test: Study Volunteer experiences with oral taurine-magnesium treatment regimens; format: in vivo, human; conditions: for Treatment Outcome: TAU 1500 mg/day, Mg 0
# Description: The following non-limiting examples show Study Volunteer experiences with various taurine-magnesium treatment regimens. Volunteers were listed in the chronological order of the start of their taking full daily doses of taurine with magnesium.
# Severity of acne was the following: Volunteers 1 and 2 had sporadic mild acne, Volunteers 3 and 4 had chronic cyclic mild acne, Volunteer 5 had chronic acne that appeared to be between mild and moderate, Volunteer 6 had chronic severe acne with scarring, Volunteer 7 had chronic moderate acne, Volunteer 8 had frequent mild acne, and Volunteer 9 had acne that appeared to be between mild and moderate.
# The data provided in the Examples support the surprising conclusion that relatively high doses of taurine together with magnesium provide excellent treatment and in some cases prevention of mild to severe acne. […] As described in the Examples, some Volunteers, in addition to taking their recommended supplements of taurine and magnesium, for some weeks or months took other micronutrient supplements or even a multivitamin/mineral supplement containing an extra low dose of magnesium.
smiles,measurement,setting,value
NCCS(=O)(=O)O [taurine],Cellular lipid levels,LXR-alpha,dose-dependent marked reduction
same,LXR-alpha ligand activity / lipogenesis,LXR-alpha,ligand of LXR-alpha that inhibits lipogenesis
same,Treatment Outcome,"acne; Volunteer 2, mild acne with noticeable lesions, 5 days",No improvement
same,Improvement of acne lesions,"acne; Volunteer 2, taurine alone 1.5 g daily, 5 days",no improvement
same,Treatment Outcome,"acne; Volunteer 4, mild acne, break-out lesions with menstrual period, 7 days",Slight
same,Improvement of acne,"acne; Volunteer 4, taurine only, first week",slight improvement
